The source of these data is ChEMBL document CHEMBL1201862, “PubChem BioAssay data set” (2004).

Active and inactive are the calls of the source.

One experiment relates to Cryptococcus neoformans. As to the kind of experiment: PubChem AID 686997. In kind it is functional, organism-based.
The nature of experiment [1]: HEK293 Cytotoxicity Assay Measured in Cell-Based System Using Plate Reader - 7071-01_Inhibitor_Dose_CherryPick_Activity_Set2. In kind it is functional.
A further experiment deals with HEK293. As to the kind of experiment: HEK293T cell cytotoxicity, dose response, cytotoxicity control, ATP luminescence, cherry-pick samples (AID 687005).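 Also: cells exposed to compound for 48 hours.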 In kind it is functional, cell-based. The note with it: Homo sapiens.
A further experiment has as its target Vasopressin V1b receptor (Homo sapiens, UniProt P47901). As to the kind of experiment: Late-stage results from the probe development effort to identify antagonists of arginine vasopressin receptor 1a (AVPR1a): fluorescence-based cell-based dose response AVPR1b inhibition counterscreen assay. In kind it is functional.
Experiment [2] can be described thus: Late-stage results from the probe development effort to identify antagonists of arginine vasopressin receptor 1a (AVPR1a): fluorescence-based cell-based dose response AVPR1a inhibition assay. It is filed as functional.
For another experiment, the target named is Vasopressin V2 receptor (Homo sapiens, UniProt P30518). As to the kind of experiment: Late-stage results from the probe development effort to identify antagonists of arginine vasopressin receptor 1a (AVPR1a): fluorescence-based cell-based dose response AVPR2 inhibition counterscreen assay. In kind it is functional.
Experiment [3] is described as follows: Late-stage results from the probe development effort to identify antagonists of arginine vasopressin receptor 1a (AVPR1a): fluorescence-based cell-based dose response OXTR inhibition counterscreen assay. It is filed as functional.
Experiment [4] in a line: inhibitors of fibronectin matrix deposition, dose response, AH1F cells, Alexa488-FN fluorescence, cherry-picks (AID 1035475). In kind it is functional, cell-based.
Experiment [5] in a line: Late stage results for the probe development effort to identify inhibitors of Plasmodium falciparum gametocytes: Luminescence-based cell-based high throughput dose response assay to identify inhibitors of viability of late stage Plasmodium falciparum gametocytes. In kind it is functional.
Experiment [6] is described as follows: TRPM1 promoter luciferase reporter signal decrease, dose response, MITF inhibitor project, cell-based, SK-MEL-5, dry powder, set 8 (AID 624430). In kind it is functional.
Experiment [7] is described as follows: MALME3 melanoma cell viability reduction, dose response, orthogonal assay for MITF inhibitor project, CellTiter-Glo luminescence, dry powder, set 5 (AID 651584). It is filed as functional, cell-based. The note with it: MALME-3.
A short description of experiment [8]: MITF Orthogonal Assay: SK-MEL-5 CTG Assay Measured in Cell-Based System Using Plate Reader - 2084-02_Inhibitor_Dose_DryPowder_Activity_Set7. In kind it is functional.
Experiment [9] is described as follows: MITF: Counter assay: A375 proliferation Measured in Cell-Based System Using Plate Reader - 2084-03_Inhibitor_Dose_DryPowder_Activity_Set8. It is filed as functional. The note with it: A-375.
Experiment [10] can be described thus: SK-MEL-5 parental cell viability reduction, dose response, orthogonal assay for MITF inhibitor project, CellTiter-Glo luminescence, dry powder, set 8 (AID 651586). In kind it is functional, cell-based.
Experiment [11] in a line: A375 melanoma cell viability loss, dose response, counter-screen for MITF modulator project, CellTiter-Glo luminescence, dry powder, set 9 (AID 651591). It is filed as functional, cell-based. To be noted: A-375.
The nature of experiment [12]: MITF Orthogonal Assay: MALME3 CTG Assay Measured in Cell-Based System Using Plate Reader - 2084-04_Inhibitor_Dose_DryPowder_Activity_Set6. To be noted: MALME-3. It is filed as functional.
Experiment [13] is described as follows: TRPM1 promoter luciferase reporter signal decrease, dose response, MITF inhibitor project, cell-based, SK-MEL-5, dry powder, set 9 (AID 651588). It is filed as functional.
Experiment [14] is described as follows: cytotoxicity in primary human melanocytes, dose response, cytotoxicity control, cell-based, plate reader, dry powder (AID 651920). It is filed as functional.

Sequence of Vasopressin V1b receptor (P47901 whole entry): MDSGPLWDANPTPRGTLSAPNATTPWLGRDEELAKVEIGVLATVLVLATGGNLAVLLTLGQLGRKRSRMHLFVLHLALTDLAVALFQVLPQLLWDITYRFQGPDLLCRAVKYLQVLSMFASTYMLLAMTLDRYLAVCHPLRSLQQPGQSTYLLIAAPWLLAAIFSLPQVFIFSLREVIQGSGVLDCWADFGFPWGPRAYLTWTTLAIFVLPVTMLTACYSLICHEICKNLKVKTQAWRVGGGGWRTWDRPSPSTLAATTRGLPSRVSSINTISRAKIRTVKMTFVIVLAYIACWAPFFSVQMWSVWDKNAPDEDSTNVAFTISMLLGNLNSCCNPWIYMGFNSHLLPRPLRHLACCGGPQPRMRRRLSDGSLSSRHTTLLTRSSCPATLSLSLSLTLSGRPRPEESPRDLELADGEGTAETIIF
Sequence of Vasopressin V2 receptor (P30518 whole entry): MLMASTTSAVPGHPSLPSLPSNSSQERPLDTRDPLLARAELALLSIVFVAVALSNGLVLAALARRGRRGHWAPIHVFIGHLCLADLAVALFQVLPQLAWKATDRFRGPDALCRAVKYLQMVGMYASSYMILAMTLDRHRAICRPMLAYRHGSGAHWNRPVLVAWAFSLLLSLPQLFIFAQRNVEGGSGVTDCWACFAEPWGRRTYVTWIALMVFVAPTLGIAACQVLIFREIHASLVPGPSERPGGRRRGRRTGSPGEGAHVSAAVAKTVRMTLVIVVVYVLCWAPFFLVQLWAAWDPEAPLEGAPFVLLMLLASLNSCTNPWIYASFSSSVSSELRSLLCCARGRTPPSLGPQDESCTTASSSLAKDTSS

For `COC(=O)C1=C(C)N(Cc2ccc(Br)cc2)C(=S)NC1c1ccccc1` (stereo not drawn), the AC50 was 18.8 µM (active) in the experiment on Cryptococcus neoformans, 19.8 µM (active) in experiment [1] and 19.8 µM (active) in the experiment with HEK293.
On to `N#Cc1ccc(N2CCC(C(=O)N(CC3CC3)c3ccc(Cl)cc3)CC2)nc1`, for which the IC50 is 25.7 µM (inactive) at Vasopressin V1b receptor, 0.8 µM (active) in experiment [2], 30.2 µM (inactive) at Vasopressin V2 receptor and 20.1 µM (inactive) in [3].
Consider `Cc1ccc(S(=O)(=O)N2CC[C@@H]3[C@H]2c2cc(-c4cccc(C(=O)N(C)C)c4)ccc2N[C@@H]3CO)cc1`, for which the half-maximal activity concentration (AC50) in [4] is 4.45 µM (active).
As to `O=C(Nc1nncs1)c1cc(-c2ccccc2)nn1-c1ccccc1`, in experiment [5], the IC50 is > 37.2 µM (inactive).
On to `COc1ccc(NC2=C(N3CCCCC3)C(=O)c3ccccc3C2=O)cc1`, for which the concentration at half-maximal activity (AC50) was 2.48 µM (active) in experiment [6]; 11.2 µM (active) in experiment [7]; 3.73 µM (active) in [8]; > 70 µM (inactive) in [9]; 26.8 µM (active) in experiment [10]; 42.4 µM (active) in experiment [11]. For the same compound, the half-maximal activity concentration (AC50) in experiment [12] was 11.2 µM (active); in experiment [13], 12 µM (active); in [14], 40.9 µM (active).
